The pIC50 is −log10 of the IC50, conventionally taken in molar units.

In patent US20240390340A1 (INCYTE CORPORATION, priority 2023, published 2024) one finds IC50 and Caco-2 data, which are given here for 17 compounds.

pIC50: −log10 of the molar value. Where only a bound is given, the exact number is not on record here.

For one data set, the target named is KRAS G12D (Homo sapiens, UniProt P01116, G12D). Nature of the data set: GDP-GTP exchange assay (bodipy-GDP/GppNHp, SOS1), KRAS G12D. It counts as biochemical. As to conditions: Table H, column G12D; for compounds isolated as several atropisomers/diastereoisomers the value for the most potent isomer is quoted; read-out: KRAS G12D exchange assay IC50.
The target in a further data set is KRAS G12V (Homo sapiens, UniProt P01116, G12V). The experiment in a line: GDP-GTP exchange assay (bodipy-GDP/GppNHp, SOS1), KRAS G12V. Particulars: Table H, column G12V; for compounds isolated as several atropisomers/diastereoisomers the value for the most potent isomer is quoted; read-out: KRAS G12V exchange assay IC50. The format is biochemical.
The subject of a further data set is Caco-2 cells. Nature of the data set: Caco2 assay (Papp A-B). The format is in vitro ADME. As to conditions: test compound 50 μM, 120 min, 37° C. How it is done: Caco-2 cells are grown at 37° C. in an atmosphere of 5% CO2 in DMEM growth medium supplemented with 10% (v/v) fetal bovine serum, 1% (v/v) nonessential amino acids, penicillin (100 U/mL), and streptomycin (100 μg/mL). Confluent cell monolayers are subcultured every 7 days or 4 days for Caco-2 by treatment with 0.05% trypsin containing […]. Caco-2 cells are seeded in 96-well Transwell plates. The seeding density for Caco-2 cells is 14,000 cells/well. DMEM growth medium is replaced every other day after seeding. Cell monolayers are used for transport assays between 22 and 25 days for Caco-2 cells.
Cell culture medium is removed and replaced with HBSS. To measure the TEER, the HBSS is added into the donor compartment (apical side) and receiver compartment (basolateral side). The TEER is measured by using a REMS Autosampler to ensure the integrity of the cell monolayers. Caco-2 cell monolayers with TEER values 300 Ω·cm^2 are used for transport experiments. To determine the Papp in the absorptive direction (A-B), solution of test compound (50 μM) in HBSS is added to the donor compartment (apical side), while HBSS solution with 4% BSA is added to the receiver compartment (basolateral side). The apical volume was 0.075 mL, and the basolateral volume is 0.25 mL. The incubation period is 120 min. at 37° C. in an atmosphere of 5% CO2. At the end of the incubation period, samples from the donor and receiver sides are removed and an equal volume of MeCN is added for protein precipitation. The supernatants are collected after centrifugation (3000 rpm, Allegra X-14R Centrifuge from Beckman Coulter, Indianapolis, IN) for LCMS analysis. The permeability value is determined according to the equation:
[formula] • where the flux rate (F, mass/time) is calculated from the slope of cumulative amounts of compound of interest on the receiver side, SA is the surface area of the cell membrane, VD is the donor volume, and MD is the initial amount of the solution in the donor chamber.
The symbol “+” indicates a Caco-2 value of ≤0.5, “++” indicates a Caco-2 value of >0.5 but ≤1; and “+++” indicates a Caco-2 value of >1. “NA” indicates IC50 not available.

Sequence of KRAS G12V (P01116 1-188 isoform P01116-2 G12V): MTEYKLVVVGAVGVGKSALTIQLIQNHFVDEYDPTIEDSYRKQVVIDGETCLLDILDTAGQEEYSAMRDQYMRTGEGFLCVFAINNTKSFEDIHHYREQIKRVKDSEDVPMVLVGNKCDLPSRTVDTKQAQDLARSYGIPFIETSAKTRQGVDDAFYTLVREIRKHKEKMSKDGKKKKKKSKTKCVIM
Sequence of KRAS G12D (P01116 1-188 isoform P01116-2 G12D): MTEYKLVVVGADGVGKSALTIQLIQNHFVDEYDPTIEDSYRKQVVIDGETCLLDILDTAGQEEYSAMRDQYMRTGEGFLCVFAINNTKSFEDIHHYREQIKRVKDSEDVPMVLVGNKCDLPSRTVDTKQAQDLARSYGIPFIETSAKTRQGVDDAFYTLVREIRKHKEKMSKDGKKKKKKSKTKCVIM

As to `Cc1nc2c(F)c(-c3cccc(Cl)c3Cl)c(CCC#N)cc2c2c1cc([C@H]1C[C@H](OC3CCOCC3)CN1C(=O)C1CC1)n2[C@H]1[C@H]2CN[C@@H]1C2` [Example 22], the negative logarithm of the IC50 (pIC50) on KRAS G12D and at KRAS G12V was no less than 7.00 each time. The Caco-2 result in the data set on Caco-2 cells is on record as “+ (a Caco-2 value of ≤0.5)”.

Consider `COC1CCC(O[C@H]2C[C@H](c3cc4c(C)nc5c(F)c(-c6cccc(Cl)c6Cl)c(CCC#N)cc5c4n3[C@H]3[C@H]4CN[C@@H]3C4)N(C(=O)C3CC3)C2)C1` (stereo partly drawn) [Example 23], for which the negative-log IC50 (pIC50) at KRAS G12D and at KRAS G12V was no less than 7.00 in each case. Further, the Caco-2 entry in the data set with Caco-2 cells is reported as “++ (a Caco-2 value of >0.5 but ≤1)”.

As to `Cc1nc2c(F)c(-c3cccc(Cl)c3Cl)c(CCC#N)cc2c2c1cc([C@H]1C[C@H](OC3CCC(C#N)C3)CN1C(=O)C1CC1)n2[C@H]1[C@H]2CN[C@@H]1C2` (stereo partly drawn) [Example 24], the pIC50 at KRAS G12D and at KRAS G12V was no less than 7.00 in each case. Besides, the Caco-2 result in the data set on Caco-2 cells is on record as “+ (a Caco-2 value of ≤0.5)”.

`Cc1csnc1CO[C@H]1C[C@H](c2cc3c(-c4ccc(C(C)(C)O)nc4)nc4c(F)c(-c5cccc(Cl)c5Cl)c(CCC#N)cc4c3n2[C@H]2[C@H]3CN[C@@H]2C3)N(C(=O)C2CC2)C1` [Example 25]: the pIC50 at KRAS G12D and on KRAS G12V was no less than 7.00 each time. In addition, the Caco-2 result in the data set with Caco-2 cells is “+ (a Caco-2 value of ≤0.5)”.

For `CN(C)C(=O)c1ccc(-c2nc3c(F)c(-c4cccc(Cl)c4Cl)c(CCC#N)cc3c3c2cc([C@H]2C[C@H](OCc4c(F)cccc4F)CN2C(=O)C2CC2)n3[C@H]2[C@H]3CN[C@@H]2C3)cn1` [Example 26], the pIC50 at KRAS G12D and on KRAS G12V was no less than 7.00 in each case. Moreover, the Caco-2 entry with Caco-2 cells is given as “+ (a Caco-2 value of ≤0.5)”.

For the compound `COc1ncccc1CO[C@H]1C[C@H](c2cc3c(C)nc4c(F)c(-c5cccc(Cl)c5Cl)c(CCC#N)cc4c3n2[C@H]2[C@H]3CN[C@@H]2C3)N(C(=O)C2CC2)C1` [Example 27], the negative logarithm of the IC50 (pIC50) on KRAS G12D and at KRAS G12V was no less than 7.00 each time. In the data set on Caco-2 cells, the Caco-2 result is given as “++ (a Caco-2 value of >0.5 but ≤1)”.

As to `Cc1ccccc1O[C@H]1C[C@H](c2cc3c(C)nc4c(F)c(-c5cccc(Cl)c5Cl)c(CCC#N)cc4c3n2[C@H]2[C@H]3CN[C@@H]2C3)N(C(=O)C2CC2)C1` [Example 28, 3-(1-((1R,4R,5S)-2-azabicyclo[2.1.1]hexan-5-yl)-2-((2R,4S)-1-(cyclopropanecarbonyl)-4-(o-tolyloxy)pyrrolidin-2-yl)-7-(2,3-dichlorophenyl)-6-fluoro-4-methyl-1H-pyrrolo[3,2-c]quinolin-8-yl)propanenitrile], the negative-log IC50 (pIC50) at KRAS G12D and on KRAS G12V was no less than 7.00 in each case. In addition, the Caco-2 result in the data set on Caco-2 cells is “++ (a Caco-2 value of >0.5 but ≤1)”.

Take `Cc1nc2c(F)c(-c3cccc(Cl)c3Cl)c(CCC#N)cc2c2c1cc([C@H]1C[C@H](OCc3nccs3)C3(CC3)N1C(=O)C1CC1)n2[C@H]1[C@H]2CN[C@@H]1C2` [Example 31]: the negative logarithm of the IC50 (pIC50) on KRAS G12D and on KRAS G12V was no less than 7.00 each time. Besides, the Caco-2 result with Caco-2 cells was “+ (a Caco-2 value of ≤0.5)”.

Consider `Cc1nc2c(F)c(-c3cccc(Cl)c3Cl)c(CCC#N)cc2c2c1cc([C@H]1C[C@H](OC(C)c3ccon3)CN1C(=O)C1CC1)n2[C@H]1[C@H]2CN[C@@H]1C2` (stereo partly drawn) [Example 32], for which the pIC50 at KRAS G12D and on KRAS G12V was no less than 7.00 in each case. Besides, the Caco-2 entry with Caco-2 cells is “+ (a Caco-2 value of ≤0.5)”.

As for `Cc1nonc1CO[C@H]1C[C@H](c2cc3c(C)nc4c(F)c(-c5cccc(Cl)c5Cl)c(CCC#N)cc4c3n2[C@H]2[C@H]3CN[C@@H]2C3)N(C(=O)C2CC2)C1` [Example 33], the pIC50 on KRAS G12D and on KRAS G12V was no less than 7.00 in each case. Further, in the data set with Caco-2 cells, the Caco-2 result was “+ (a Caco-2 value of ≤0.5)”.

For the compound `CC(O)c1nc2c(F)c(-c3cccc(Cl)c3Cl)c(CCC#N)cc2c2c1cc([C@H]1C[C@H](OCc3c(F)cccc3F)CN1C(=O)C1CC1)n2[C@H]1[C@H]2CN[C@@H]1C2` (stereo partly drawn) [Example 34], the pIC50 at KRAS G12D and at KRAS G12V was no less than 7.00 throughout. Further, the Caco-2 result with Caco-2 cells is recorded as “+ (a Caco-2 value of ≤0.5)”.

In the case of `CC(O)c1nc2c(F)c(-c3cccc(Cl)c3Cl)c(CCC#N)cc2c2c1cc([C@H]1C[C@H](OCc3ccc(F)cc3C#N)CN1C(=O)C1(C)CC1)n2[C@H]1[C@H]2CN[C@@H]1C2` (stereo partly drawn) [Example 35, 2-((((3S,5R)-5-(1-((1R,4R,5S)-2-Azabicyclo[2.1.1]hexan-5-yl)-8-(2-cyanoethyl)-7-(2,3-dichlorophenyl)-6-fluoro-4-(1-hydroxyethyl)-1H-pyrrolo[3,2-c]quinolin-2-yl)-1-(1-methylcyclopropane-1-carbonyl)pyrrolidin-3-yl)oxy)methyl)-5-fluorobenzonitrile], the negative-log IC50 (pIC50) at KRAS G12D and on KRAS G12V was no less than 7.00 throughout. The Caco-2 entry in the data set with Caco-2 cells is “++ (a Caco-2 value of >0.5 but ≤1)”.

For the compound `Cc1nc2c(F)c(-c3cccc(Cl)c3Cl)c(CCC#N)cc2c2c1cc([C@H]1C[C@H](Oc3cccnc3OC(F)F)CN1C(=O)C1CC1)n2[C@H]1[C@H]2CN[C@@H]1C2` [Example 37, 3-(1-((1R,4R,5S)-2-Azabicyclo[2.1.1]hexan-5-yl)-2-((2R,4S)-1-(cyclopropanecarbonyl)-4-((2-(difluoromethoxy)pyridin-3-yl)oxy)pyrrolidin-2-yl)-7-(2,3-dichlorophenyl)-6-fluoro-4-methyl-1H-pyrrolo[3,2-c]quinolin-8-yl)propanenitrile], the pIC50 on KRAS G12D and at KRAS G12V was no less than 7.00 each time. The Caco-2 entry in the data set with Caco-2 cells was “+ (a Caco-2 value of ≤0.5)”.

As for `Cc1nc2c(F)c(-c3cccc(Cl)c3Cl)c(CCC#N)cc2c2c1cc([C@H]1C[C@H](Oc3ccc(N(C)C)nc3)CN1C(=O)C1CC1)n2[C@H]1[C@H]2CN[C@@H]1C2` [Example 38, 3-(1-((1R,4R,5S)-2-Azabicyclo[2.1.1]hexan-5-yl)-2-((2R,4S)-1-(cyclopropanecarbonyl)-4-((6-(dimethylamino)pyridin-3-yl)oxy)pyrrolidin-2-yl)-7-(2,3-dichlorophenyl)-6-fluoro-4-methyl-1H-pyrrolo[3,2-c]quinolin-8-yl)propanenitrile], the pIC50 at KRAS G12D and on KRAS G12V was no less than 7.00 in each case. The Caco-2 result in the data set with Caco-2 cells was “++ (a Caco-2 value of >0.5 but ≤1)”.

Turning to `Cc1nc2c(F)c(-c3cccc(Cl)c3Cl)c(CCC#N)cc2c2c1cc([C@H]1C[C@H](Oc3cccnc3F)CN1C(=O)C1CC1)n2[C@H]1[C@H]2CN[C@@H]1C2` [Example 39, 3-(1-((1R,4R,5S)-2-Azabicyclo[2.1.1]hexan-5-yl)-2-((2R,4S)-1-(cyclopropanecarbonyl)-4-((2-fluoropyridin-3-yl)oxy)pyrrolidin-2-yl)-7-(2,3-dichlorophenyl)-6-fluoro-4-methyl-1H-pyrrolo[3,2-c]quinolin-8-yl)propanenitrile], the negative-log IC50 (pIC50) on KRAS G12D and on KRAS G12V was no less than 7.00 in each case. The Caco-2 entry in the data set with Caco-2 cells was “++ (a Caco-2 value of >0.5 but ≤1)”.

`Cc1nc2c(F)c(-c3cccc(Cl)c3Cl)c(CCC#N)cc2c2c1cc([C@H]1C[C@H](Oc3ccnc(OC(F)F)c3)CN1C(=O)C1CC1)n2[C@H]1[C@H]2CN[C@@H]1C2` [Example 40, 3-(1-((1R,4R,5S)-2-Azabicyclo[2.1.1]hexan-5-yl)-2-((2R,4S)-1-(cyclopropanecarbonyl)-4-((2-(difluoromethoxy)pyridin-4-yl)oxy)pyrrolidin-2-yl)-7-(2,3-dichlorophenyl)-6-fluoro-4-methyl-1H-pyrrolo[3,2-c]quinolin-8-yl)propanenitrile]: the pIC50 at KRAS G12D and on KRAS G12V was no less than 7.00 throughout. In addition, the Caco-2 entry with Caco-2 cells was “+ (a Caco-2 value of ≤0.5)”.

In the case of `COc1cc(O[C@H]2C[C@H](c3cc4c(C)nc5c(F)c(-c6cccc(Cl)c6Cl)c(CCC#N)cc5c4n3[C@H]3[C@H]4CN[C@@H]3C4)N(C(=O)C3CC3)[C@@H]2C)ccn1` [Example 41, 3-(1-((1R,4R,5S)-2-Azabicyclo[2.1.1]hexan-5-yl)-2-((2R,4S,5R)-1-(cyclopropanecarbonyl)-4-((2-methoxypyridin-4-yl)oxy)-5-methylpyrrolidin-2-yl)-7-(2,3-dichlorophenyl)-6-fluoro-4-methyl-1H-pyrrolo[3,2-c]quinolin-8-yl)propanenitrile], the pIC50 at KRAS G12D and at KRAS G12V was no less than 7.00 each time. Further, the Caco-2 entry in the data set with Caco-2 cells was “++ (a Caco-2 value of >0.5 but ≤1)”.
